Assay results reported in patent US11866695B2, “Methods and systems and related compositions for mixtures separation with a solid matrix” (CALIFORNIA INSTITUTE OF TECHNOLOGY, priority 2019, dated 2024).

Assays:
[1] = Phase separation of compounds mixed at a 1:1 volume ratio; format: physicochemical; design: key: A “2” denotes phase separation into 2 distinct phases; a “1” forms a single phase
[2] = tested on: qPCR spiked with 5×104 copies λ phage DNA; test: qPCR reaction inhibition by dilutions of NA extraction kit buffers; format: biochemical; conditions: for Avg Cq: 9 replicates, non-detects assigned 40 cycles
Protocol: qPCR reactions contained 1× Bio-Rad SsoFast Supermix (1725201, Bio-Rad), PCR primers (IDT) at […] each, and were supplemented with nuclease-free water up to 10 μL. Each 96-well plate (thin-wall clear well, HSP9641, Bio-Rad) was sealed (Microseal B, MSB1001, Bio-Rad) and briefly spun in a Mini Plate Spinner Centrifuge (14-100-141, Fisher Scientific). Heating and real-time imaging were performed on the Bio-Rad CFX-96 Touch Real-Time PCR Detection System by heating to 95° C. for 5 min, cycling 40 times between 95° C. for 15 s, 60° C. for 15 s, and 72° C. for 20 s, and taking a melt-curve analysis. For the E. coli DNA dilution experiment, qPCR was run for 60 cycles. Fluorescence readings were taken at the end of each extension step. Quantification cycle (Cq) was determined when the software's automated baseline corrected fluorescence reached 200 RFU.
(§1) Confidence intervals were calculated assuming the populations to be normally distributed and using a t statistic. For buffer inhibition experiments, statistical analysis was performed by a 1-tailed unequal variance t-test (N=9) comparing the water condition (control) to each buffer concentration (H1: the mean is delayed). For the subsequent experiments, a 2-tailed unequal variance t-test (H1: the means are different) was used. Non-detects were assigned the maximum possible Cq measurement of 40 cycles or a TTP of 46.7 min to indicate the lack of amplification. Although this approach introduces some bias into the analysis, it is believed this is the best representation for handling non-detects (other alternatives include excluding the non-detects or assigning non-detect values to the average of those that amplified).
These two commercial kits in particular were chosen because they both utilize minimal protocols (lysis, wash, elute) with no added steps (e.g. bacterial pellet spins, proteinase K, lysozyme, DNase/RNase, filtration, etc.). Specifically, an experiment was conducted to identify the concentration at which each buffer inhibits qPCR and LAMP. First, buffers were added at half-log dilutions (from 10% down to 0.032%) into λ phage spiked qPCR or LAMP reactions (1 μL diluted buffer, 1 μL template, 8 μL reaction mix).

[3] = tested on: LAMP spiked with 5×104 copies λ phage DNA; test: LAMP reaction inhibition by dilutions of NA extraction kit buffers; format: biochemical; conditions: for Avg TTP: 9 replicates, non-detects assigned 46.7 min
Protocol: LAMP primers (Integrated DNA Technologies (IDT), Coralville, Iowa, USA) were designed, ordered, and added at NEB's recommended concentrations of […] FIP/BIP, 0.2μM F3/B3, and […] LoopF/B.
Each 96-well plate was sealed and briefly spun. […] Time-to-positive (TTP) was determined when the software's automated baseline corrected fluorescence reached 1000 RFU.
as §1, with “Non-detects were assigned the maximum possible Cq measurement of 40 cycles or a TTP of 46.7 min to indicate the lack of amplification.” left out
These two commercial kits in particular were chosen because they both utilize minimal protocols (lysis, wash, elute) with no added steps (e.g. bacterial pellet spins, proteinase K, lysozyme, DNase/RNase, filtration, etc.). Specifically, an experiment was conducted to identify the concentration at which each buffer inhibits qPCR and LAMP.

[4] = 0.03% buffer vs water condition (0%)
[5] = 0.1% buffer vs water condition (0%)
[6] = 0.32% buffer vs water condition (0%)
[7] = 1% buffer vs water condition (0%)
[8] = 3.2% buffer vs water condition (0%)
[9] = 10% buffer vs water condition (0%)

CCCCCCCCCCCO [1-undecanol]
Number of phases ([1]; mixed 1:1 (volume) with Ethanol): 1
Number of phases ([1]; mixed 1:1 (volume) with H2O): 2
Number of phases ([1]; mixed 1:1 (volume) with VWB (80% ethanol v/v)): 1

CCO [Ethanol, ethanol]
Avg Cq ([2]; 0.03% buffer in qPCR): 20.1 cycles
ΔCq [2, 4]: 0.0 cycles
Avg Cq ([2]; 0.1% buffer in qPCR): 20.2 cycles
ΔCq [2, 5]: 0.1 cycles
Avg Cq ([2]; 0.32% buffer in qPCR): 20.2 cycles
ΔCq [2, 6]: 0.1 cycles
Avg Cq ([2]; 1% buffer in qPCR): 20.1 cycles
ΔCq [2, 7]: 0.0 cycles
Avg Cq ([2]; 3.2% buffer in qPCR): 20.6 cycles
ΔCq [2, 8]: 0.5 cycles
Avg Cq ([2]; 10% buffer in qPCR): 27.5 cycles
ΔCq [2, 9]: 7.4 cycles
Avg TTP ([3]; 0.03% buffer in LAMP): 6.4 min
ΔTTP [3, 4]: 0.1 min
Avg TTP ([3]; 0.1% buffer in LAMP): 6.5 min
ΔTTP [3, 5]: 0.1 min
Avg TTP ([3]; 0.32% buffer in LAMP): 6.6 min
ΔTTP [3, 6]: 0.2 min
Avg TTP ([3]; 1% buffer in LAMP): 6.9 min
ΔTTP [3, 7]: 0.5 min
Avg TTP ([3]; 3.2% buffer in LAMP): 9.7 min
ΔTTP [3, 8]: 3.3 min
Avg TTP ([3]; 10% buffer in LAMP): 46.7 min
ΔTTP [3, 9]: 40.3 min
